# Results taken from patent US12227496B2 (BRISTOL-MYERS SQUIBB COMPANY, priority 2019, dated 2025).
# Molecular target: T1, human FXR (Homo sapiens, UniProt Q96RI1)
# T1 construct: expressed in transfected cells; host or cells: HEK293 cells stably carrying a 5xGal4-response-element firefly luciferase reporter, transiently transfected with pcDNA3.1-Gal4-FXR
# T1 sequence (Q96RI1 262-486 limits assumed): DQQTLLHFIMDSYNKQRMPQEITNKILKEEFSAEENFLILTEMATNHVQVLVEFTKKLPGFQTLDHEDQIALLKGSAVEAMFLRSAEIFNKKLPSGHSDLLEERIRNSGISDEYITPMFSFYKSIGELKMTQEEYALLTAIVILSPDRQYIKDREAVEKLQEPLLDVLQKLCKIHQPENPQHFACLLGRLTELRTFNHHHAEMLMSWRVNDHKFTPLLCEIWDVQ
# Assay: transient human FXR/Gal4-luciferase reporter assay
# Format: cell-based
# Settings: Gal4-hFXR LBD fusion, luciferase reporter in HEK293 cells; response relative to 8 μM GW-4064
# Summary of the method: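 HEK293 cells stably carrying a 5×Gal4-response-element firefly luciferase reporter were transiently transfected with Gal4-hFXR. They were then incubated overnight at 37 °C with compound serial dilutions in medium containing 10% charcoal/dextran-stripped FBS. Luminescence was read after Steady-Glo addition.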
structure (smiles),measurement,value
"Cc1nc2ccc(-c3cccc(N(CC45CCC(c6cc(C7CC7)nn6C)(CC4)CC5)C(=O)C4CCC(F)(F)CC4)c3)cc2s1 [Example 137, N-((4-(3-cyclopropyl-1-methyl-1H-pyrazol-5-yl)bicyclo[2.2.2]octan-1-yl)methyl)-4,4-difluoro-N-(3-(2-methylbenzo[d]thiazol-6-yl)phenyl)cyclohexane-1-carboxamide]",EC50,449 nM
"O=C(C1CCC(F)(F)CC1)N(CC12CCC(c3noc(C4CC(O)(C(F)(F)F)C4)n3)(CC1)CC2)c1cccc(-c2cnc(C3CC3)nc2)c1 (stereo not drawn) [Example 120, N-(3-(2-cyclopropylpyrimidin-5-yl)phenyl)-4,4-difluoro-N-((4-(5-(3-hydroxy-3-(trifluoromethyl)cyclobutyl)-1,2,4-oxadiazol-3-yl)bicyclo[2.2.2]octan-1-yl)methyl)cyclohexane-1-carboxamide]",EC50,2000 nM
"CCOc1ncc(-c2cccc(N(CC34CCC(c5nc(C6CC6)no5)(CC3)CC4)C(=O)C3CCC(F)(F)CC3)c2)o1 [Example 9, N-((4-(3-cyclopropyl-1,2,4-oxadiazol-5-yl)bicyclo[2.2.2]octan-1-yl)methyl)-N-(3-(2-ethoxyoxazol-5-yl)phenyl)-4,4-difluorocyclohexane-1-carboxamide]",EC50,142 nM
"CC(C)(C)c1nnc(C23CCC(CN(C(=O)C4CCC(F)(F)CC4)c4cccc(-c5nc(C6CC6)no5)c4)(CC2)CC3)o1 [Example 123, N-((4-(5-(tert-Butyl)-1,3,4-oxadiazol-2-yl)bicyclo[2.2.2]octan-1-yl)methyl)-N-(3-(3-cyclopropyl-1,2,4-oxadiazol-5-yl)phenyl)-4,4-difluorocyclohexane-1-carboxamide]",EC50,280 nM
"CCOc1ncc(-c2cccc(N(CC34CCC(c5nc(C6CC6)no5)(CC3)CC4)C(=O)C3CCCCC3)c2)o1 [Example 8, N-((4-(3-cyclopropyl-1,2,4-oxadiazol-5-yl)bicyclo[2.2.2]octan-1-yl)methyl)-N-(3-(2-ethoxyoxazol-5-yl)phenyl)cyclohexanecarboxamide]",EC50,19 nM
"CC(C)(C)c1noc(C23CCC(CN(C(=O)C4CCOCC4)c4cccc(-c5cc(C6CC6)on5)c4)(CC2)CC3)n1 [Example 161, N-((4-(3-(tert-butyl)-1,2,4-oxadiazol-5-yl)bicyclo[2.2.2]octan-1-yl)methyl)-N-(3-(5-cyclopropylisoxazol-3-yl)phenyl)tetrahydro-2H-pyran-4-carboxamide]",EC50,77 nM
"CC(C)(C)c1nnc(C23CCC(CN(C(=O)C4CCC(F)(F)CC4)c4cccc(-c5cc(C6CC6)on5)c4)(CC2)CC3)o1 [Example 124, N-((4-(5-(tert-Butyl)-1,3,4-oxadiazol-2-yl)bicyclo[2.2.2]octan-1-yl)methyl)-N-(3-(5-cyclopropylisoxazol-3-yl)phenyl)-4,4-difluorocyclohexane-1-carboxamide]",EC50,467 nM
"O=C(C1CCC(F)(F)CC1)N(CC12CCC(c3nc(C4CC4)no3)(CC1)CC2)c1cccc(-c2cnc(C3CC3)o2)c1 [Example 26, N-((4-(3-cyclopropyl-1,2,4-oxadiazol-5-yl)bicyclo[2.2.2]octan-1-yl)methyl)-N-(3-(2-cyclopropyloxazol-5-yl)phenyl)-4,4-difluorocyclohexane-1-carboxamide]",EC50,355 nM
"CCOc1ccc(-c2cc(N(CC34CCC(c5noc(C(C)(F)F)n5)(CC3)CC4)C(=O)C3CCC(O)(C(F)(F)F)CC3)ccc2F)cc1 (single isomer, unassigned) [Example 164, N-((4-(5-(1,1-difluoroethyl)-1,2,4-oxadiazol-3-yl)bicyclo[2.2.2]octan-1-yl)methyl)-N-(4′-ethoxy-6-fluoro-[1,1′-biphenyl]-3-yl)-4-hydroxy-4-(trifluoromethyl)cyclohexane-1-carboxamide]",EC50,271 nM
"O=C(C1CCOCC1)N(CC12CCC(c3nc(C4CC4)no3)(CC1)CC2)c1cccc(-c2cnc(C3CC3)o2)c1 [Example 23, N-((4-(3-cyclopropyl-1,2,4-oxadiazol-5-yl)bicyclo[2.2.2]octan-1-yl)methyl)-N-(3-(2-cyclopropyloxazol-5-yl)phenyl)tetrahydro-2H-pyran-4-carboxamide]",EC50,74 nM
"CCOc1ncc(-c2cccc(N(CC34CCC(c5noc(C(C)(C)F)n5)(CC3)CC4)C(=O)c3ccc(OC)cc3)c2)cn1 [Example 143, N-(3-(2-ethoxypyrimidin-5-yl)phenyl)-N-((4-(5-(2-fluoropropan-2-yl)-1,2,4-oxadiazol-3-yl)bicyclo[2.2.2]octan-1-yl)methyl)-4-methoxybenzamide]",EC50,202 nM
"CCCc1ncc(-c2cccc(N(CC34CCC(c5nc(C6CC6)no5)(CC3)CC4)C(=O)C3CCCCC3)c2)o1 [Example 28, N-((4-(3-cyclopropyl-1,2,4-oxadiazol-5-yl)bicyclo[2.2.2]octan-1-yl)methyl)-N-(3-(2-propyloxazol-5-yl)phenyl)cyclohexanecarboxamide]",EC50,34 nM
"O=C(C1CCC(F)(F)CC1)N(CC12CCC(c3nc(C4CC4)no3)(CC1)CC2)c1cccc(-c2nc(CC3CC3)no2)c1 [Example 43, N-((4-(3-cyclopropyl-1,2,4-oxadiazol-5-yl)bicyclo[2.2.2]octan-1-yl)methyl)-N-(3-(3-(cyclopropylmethyl)-1,2,4-oxadiazol-5-yl)phenyl)-4,4-difluorocyclohexane-1-carboxamide]",EC50,379 nM
"O=C(C1CCC(F)(F)CC1)N(CC12CCC(c3nc(C4CC4)no3)(CC1)CC2)c1cccc(-c2nc(C3CC3)no2)c1 [Example 14, N-((4-(3-cyclopropyl-1,2,4-oxadiazol-5-yl)bicyclo[2.2.2]octan-1-yl)methyl)-N-(3-(3-cyclopropyl-1,2,4-oxadiazol-5-yl)phenyl)-4,4-difluorocyclohexane-1-carboxamide]",EC50,272 nM
"COc1cc(-c2cccc(N(CC34CC(c5nc(C6CCOCC6)no5)(C3)C4)C(=O)C3CCCCC3)c2)ccn1 [Example 97, N-(3-(2-methoxypyridin-4-yl)phenyl)-N-((3-(3-(tetrahydro-2H-pyran-4-yl)-1,2,4-oxadiazol-5-yl)bicyclo[1.1.1]pentan-1-yl)methyl)cyclohexanecarboxamide]",EC50,1710 nM
"Cn1cc(-c2cccc(N(CC34CCC(c5nc(C6CC6)no5)(CC3)CC4)C(=O)C3CCCOC3)c2)nc1C1CC1 (racemic) [Example 68, N-((4-(3-cyclopropyl-1,2,4-oxadiazol-5-yl)bicyclo[2.2.2]octan-1-yl)methyl)-N-(3-(2-cyclopropyl-1-methyl-1H-imidazol-4-yl)phenyl)tetrahydro-2H-pyran-3-carboxamide]",EC50,4100 nM
"O=C(C1CCOCC1)N(CC12CCC(c3nc(C4CC4)no3)(CC1)CC2)c1cccc(-c2cc(C3CC3)on2)c1 [Example 40, N-((4-(3-cyclopropyl-1,2,4-oxadiazol-5-yl)bicyclo[2.2.2]octan-1-yl)methyl)-N-(3-(5-cyclopropylisoxazol-3-yl)phenyl)tetrahydro-2h-pyran-4-carboxamide]",EC50,78 nM
"Cc1nc2ccc(-c3cc(N(CC45CCC(c6noc(C(C)(F)F)n6)(CC4)CC5)C(=O)C4CCC(F)(F)CC4)ccc3F)cc2s1 [Example 108, N-((4-(5-(1,1-difluoroethyl)-1,2,4-oxadiazol-3-yl)bicyclo[2.2.2]octan-1-yl)methyl)-4,4-difluoro-N-(4-fluoro-3-(2-methylbenzo[d]thiazol-6-yl)phenyl)cyclohexane-1-carboxamide]",EC50,250 nM
"CC(F)(F)c1nc(C23CCC(CN(C(=O)C4CCC(F)(F)CC4)c4cccc(-c5cc(C6CC6)on5)c4)(CC2)CC3)no1 [Example 154, N-(3-(5-cyclopropylisoxazol-3-yl)phenyl)-N-((4-(5-(1,1-difluoroethyl)-1,2,4-oxadiazol-3-yl)bicyclo[2.2.2]octan-1-yl)methyl)-4,4-difluorocyclohexane-1-carboxamide]",EC50,57 nM
"CC1(C)CCCN(C(=O)N(CC23CCC(c4nc(C5CC5)no4)(CC2)CC3)c2cccc(-c3nc(C4CC4)no3)c2)C1 (racemic) [Example 62, N-((4-(3-cyclopropyl-1,2,4-oxadiazol-5-yl)bicyclo[2.2.2]octan-1-yl)methyl)-N-(3-(3-cyclopropyl-1,2,4-oxadiazol-5-yl)phenyl)-3,3-dimethylpiperidine-1-carboxamide]",EC50,3810 nM
"Cn1nc(C23CCC(CN(C(=O)C4CCCOC4)c4cccc(-c5nc(C6CC6)no5)c4)(CC2)CC3)cc1C1CC1 (racemic) [Example 67, N-(3-(3-cyclopropyl-1,2,4-oxadiazol-5-yl)phenyl)-N-((4-(5-cyclopropyl-1-methyl-1H-pyrazol-3-yl)bicyclo[2.2.2]octan-1-yl)methyl)tetrahydro-2H-pyran-3-carboxamide]",EC50,256 nM
"O=C(C1CCCOC1)N(CC12CCC(c3nc(C4CC4)cs3)(CC1)CC2)c1cccc(-c2nc(C3CC3)no2)c1 (racemic) [Example 66, N-(3-(3-cyclopropyl-1,2,4-oxadiazol-5-yl)phenyl)-N-((4-(4-cyclopropylthiazol-2-yl)bicyclo[2.2.2]octan-1-yl)methyl)tetrahydro-2H-pyran-3-carboxamide]",EC50,1250 nM
"COc1cc(-c2cccc(N(CC34CCC(c5nnc(C)s5)(CC3)CC4)C(=O)C3CCCCC3)c2)ccn1 [Example 80, N-(3-(2-methoxypyridin-4-yl)phenyl)-N-((4-(5-methyl-1,3,4-thiadiazol-2-yl)bicyclo[2.2.2]octan-1-yl)methyl)cyclohexanecarboxamide]",EC50,532 nM
"CCOc1ccc(-c2cc(N(CC34CCC(c5nc(C(C)(C)C)no5)(CC3)CC4)C(=O)C3CCC(C)(O)CC3)ccc2F)cc1 (stereo not drawn) [Example 166, N-((4-(3-(tert-butyl)-1,2,4-oxadiazol-5-yl)bicyclo[2.2.2]octan-1-yl)methyl)-N-(4′-ethoxy-6-fluoro-[1,1′-biphenyl]-3-yl)-4-hydroxy-4-methylcyclohexane-1-carboxamide]",EC50,1080 nM
